In US10851083B2, “Benzoimidazoles as prolyl hydroxylase inhibitors” (Janssen Pharmaceutica NV, priority 2008, dated 2020):

target: human PHD2181-417 (Homo sapiens (Human), UniProt Q9GZT9); assay: PHD2 enzyme activity assay ([14C]-succinic acid production); format: biochemical; conditions: PHD2181-417 polypeptide, HIF-1α peptide 10 μM, [5-14C]-2-oxoglutaric acid; 30 min pre-incubation; tested 10 μM to 3 nM;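 note: reaction ran 10 min with compound in Tris pH 7.5 buffer with catalase, DTT and ascorbate, labelled succinate freed of leftover 2-oxoglutarate by DNP precipitation, then beta counted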
Sequence (Q9GZT9 181-417): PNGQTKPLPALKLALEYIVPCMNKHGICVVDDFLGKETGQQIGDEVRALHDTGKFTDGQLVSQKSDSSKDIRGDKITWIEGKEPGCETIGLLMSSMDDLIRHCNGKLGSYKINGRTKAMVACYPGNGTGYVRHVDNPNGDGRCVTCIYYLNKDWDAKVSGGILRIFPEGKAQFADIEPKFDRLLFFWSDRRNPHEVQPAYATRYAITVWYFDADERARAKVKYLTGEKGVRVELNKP

First: CC(C)Sc1cc2[nH]c(-n3cc(C(=O)O)cn3)nc2cc1C(F)(F)F [Example 73, 1-(6-Isopropylsulfanyl-5-trifluoromethyl-1H-benzoimidazol-2-yl)-1H-pyrazole-4-carboxylic Acid]
Second: CC(C)Sc1cc2[nH]c(-n3cc(C(=O)O)cn3)nc2cc1OC(F)(F)F [Example 80, 1-(6-Isopropylsulfanyl-5-trifluoromethoxy-1H-benzoimidazol-2-yl)-1H-pyrazole-4-carboxylic Acid]
The “Enzyme pIC50” value of the first is higher: 7.2 for the first, 7 for the second.

Going from `CCCSc1cc2[nH]c(-n3cc(C(=O)O)cn3)nc2cc1OC(F)(F)F` [Example 81, 1-(6-Propylsulfanyl-5-trifluoromethoxy-1H-benzoimidazol-2-yl)-1H-pyrazole-4-carboxylic Acid] to `CC(C)S(=O)(=O)c1cc2[nH]c(-n3cc(C(=O)O)cn3)nc2cc1OC(F)(F)F` [Example 105, 1-[6-(Propane-2-sulfonyl)-5-trifluoromethoxy-1H-benzoimidazol-2-yl]-1H-pyrazole-4-carboxylic Acid], the “Enzyme pIC50” value rises from 7 to 7.4.

`CC(C)S(=O)(=O)c1cc2[nH]c(-n3cc(C(=O)O)cn3)nc2cc1C(F)(F)F` [Example 103, 1-[6-(Propane-2-sulfonyl)-5-trifluoromethyl-1H-benzoimidazol-2-yl]-1H-pyrazole-4-carboxylic Acid] and `CCCS(=O)(=O)c1cc2[nH]c(-n3cc(C(=O)O)cn3)nc2cc1C(F)(F)F` [Example 104, 1-[6-(Propane-1-sulfonyl)-5-trifluoromethyl-1H-benzoimidazol-2-yl]-1H-pyrazole-4-carboxylic Acid] are within 0.2 log units of each other in “Enzyme pIC50” value: 7.4 for the first, 7.5 for the second.

Going from `CC(C)Sc1cc2nc(-n3cc(C(=O)O)cn3)[nH]c2cc1F` [Example 153, 1-(6-Fluoro-5-isopropylsulfanyl-1H-benzoimidazol-2-yl)-1H-pyrazole-4-carboxylic Acid] to `CC(C)S(=O)(=O)c1cc2nc(-n3cc(C(=O)O)cn3)[nH]c2cc1F` [Example 158, 1-(6-Fluoro-5-isopropylsulfonyl-1H-benzoimidazol-2-yl)-1H-pyrazole-4-carboxylic Acid], the “Enzyme pIC50” value rises from 6.9 to 7.3.

With `CCCS(=O)(=O)c1cc2nc(-n3cc(C(=O)O)cn3)[nH]c2cc1F` [Example 157, 1-(6-Fluoro-5-propylsulfonyl-1H-benzoimidazol-2-yl)-1H-pyrazole-4-carboxylic Acid] the “Enzyme pIC50” value was 7.4.

same assay, conditions: PHD2181-417 polypeptide, HIF-1α peptide 10 μM, [5-14C]-2-oxoglutaric acid; 30 min pre-incubation; tested 10 μM to 3 nM; read-out: Enzyme pIC50 (converted)

`Cc1ccc(CSc2cc3nc(-n4cc(C(=O)O)cn4)[nH]c3cc2Cl)cc1` [Example 169, 1-[6-Chloro-5-(4-methyl-benzylsulfanyl)-1H-benzoimidazol-2-yl]-1H-pyrazole-4-carboxylic Acid] showed an IC50 of 200 nM.

system: Hep-3B cells; assay: Cellular assay: EPO secretion in Hep-3B cells; format: cell-based, human; set-up: EPO secretion, % of control compound: dose or concentration left out as unconfirmed; conditions: 24 h, compound at 100 μM (10 μM or 100 μM), EPO secretion as percentage of control compound 7-[(4-Chloro-phenyl)-(5-methyl-isoxazol-3-ylamino)-methyl]-quinolin-8-ol

Going from `O=C(O)c1cnn(-c2nc3ccccc3[nH]2)c1` [Example 1, 1-(1H-Benzoimidazol-2-yl)-1H-pyrazole-4-carboxylic Acid] to `O=C(O)c1cnn(-c2nc3cc(Br)ccc3[nH]2)c1` [Example 6, 1-(5-Bromo-1H-benzoimidazol-2-yl)-1H-pyrazole-4-carboxylic Acid], the “Cellular % EPO Stimulation” value rises from 7.1% to 9.91%.

Going from `Cc1cc2nc(-n3cc(C(=O)O)cn3)[nH]c2cc1C` [Example 5, 1-(5,6-Dimethyl-1H-benzoimidazol-2-yl)-1H-pyrazole-4-carboxylic Acid] to `COc1cc2nc(-n3cc(C(=O)O)cn3)[nH]c2cc1OC` [Example 9, 1-(5,6-Dimethoxy-1H-benzoimidazol-2-yl)-1H-pyrazole-4-carboxylic Acid], the “Cellular % EPO Stimulation” value rises from 2.1% to 4.26%.

Compared with `COc1ccc2[nH]c(-n3cc(C(=O)O)cn3)nc2c1` [Example 7, 1-(5-Methoxy-1H-benzoimidazol-2-yl)-1H-pyrazole-4-carboxylic Acid], `O=C(O)c1cnn(-c2nc3cc(Cl)ccc3[nH]2)c1` [Example 25, 1-(5-Chloro-1H-benzoimidazol-2-yl)-1H-pyrazole-4-carboxylic Acid] is higher in “Cellular % EPO Stimulation” value: 16.8% for the first, 71.87% for the second.

Going from `O=C(O)c1cnn(-c2nc3c(Cl)cc(C(F)(F)F)cc3[nH]2)c1` [Example 8, 1-(4-Chloro-6-trifluoromethyl-1H-benzoimidazol-2-yl)-1H-pyrazole-4-carboxylic Acid] to `O=C(O)c1cnn(-c2nc3cc(OC(F)(F)F)ccc3[nH]2)c1` [Example 11, 1-(5-Trifluoromethoxy-1H-benzoimidazol-2-yl)-1H-pyrazole-4-carboxylic Acid], the “Cellular % EPO Stimulation” value rises from 20.97% to 123.68%.

Going from `Cc1ccc2[nH]c(-n3cc(C(=O)O)cn3)nc2c1C` [Example 10, 1-(4,5-Dimethyl-1H-benzoimidazol-2-yl)-1H-pyrazole-4-carboxylic Acid] to `Cc1c(Br)cc2nc(-n3cc(C(=O)O)cn3)[nH]c2c1C` [Example 26, 1-(5-Bromo-6,7-dimethyl-1H-benzoimidazol-2-yl)-1H-pyrazole-4-carboxylic Acid], the “Cellular % EPO Stimulation” value rises from 10.7% to 11.9%.

Going from `O=C(O)c1cnn(-c2nc3cc(-c4cccc(OCc5cccc(Cl)c5)c4)ccc3[nH]2)c1` [Example 12, 1-{5-[3-(3-Chloro-benzyloxy)-phenyl]-1H-benzoimidazol-2-yl}-1H-pyrazole-4-carboxylic Acid] to `O=C(O)c1cnn(-c2nc3cc(-c4cccc(OCc5ccccc5)c4)ccc3[nH]2)c1` [Example 15, 1-[5-(3-Benzyloxy-phenyl)-1H-benzoimidazol-2-yl]-1H-pyrazole-4-carboxylic Acid], the “Cellular % EPO Stimulation” value rises from 8.76% to 10.77%.

Going from `O=C(O)c1cnn(-c2nc3cc(-c4cccc(OCc5ccccc5Cl)c4)ccc3[nH]2)c1` [Example 13, 1-{5-[3-(2-Chloro-benzyloxy)-phenyl]-1H-benzoimidazol-2-yl}-1H-pyrazole-4-carboxylic Acid] to `O=C(O)c1cnn(-c2nc3cc(-c4ccc(OCc5ccccc5)cc4)ccc3[nH]2)c1` [Example 16, 1-[5-(4-Benzyloxy-phenyl)-1H-benzoimidazol-2-yl]-1H-pyrazole-4-carboxylic Acid], the “Cellular % EPO Stimulation” value falls from 18% to 6.97%.

First: O=C(O)c1cnn(-c2nc3cc(-c4cccc(C(F)(F)F)c4)ccc3[nH]2)c1 [Example 17, 1-[5-(3-Trifluoromethyl-phenyl)-1H-benzoimidazol-2-yl]-1H-pyrazole-4-carboxylic Acid]
Second: O=C(O)c1cnn(-c2nc3cc(-c4cccc(O)c4)ccc3[nH]2)c1 [Example 24, 1-[5-(3-Hydroxy-phenyl)-1H-benzoimidazol-2-yl]-1H-pyrazole-4-carboxylic Acid]
The “Cellular % EPO Stimulation” value of the first is lower: 5.8% for the first, 11.15% for the second.

Going from `O=C(O)c1cnn(-c2nc3cc(-c4ccc(Cl)c(Cl)c4)ccc3[nH]2)c1` [Example 18, 1-[5-(3,4-Dichloro-phenyl)-1H-benzoimidazol-2-yl]-1H-pyrazole-4-carboxylic Acid] to `O=C(O)c1cnn(-c2nc3cc(-c4ccc(O)cc4)ccc3[nH]2)c1` [Example 23, 1-[5-(4-Hydroxy-phenyl)-1H-benzoimidazol-2-yl]-1H-pyrazole-4-carboxylic Acid], the “Cellular % EPO Stimulation” value falls from 15.3% to 6.49%.

Compared with `O=C(O)c1cn(-c2nc3cc(Br)ccc3[nH]2)nc1C(F)(F)F` [Example 19, 1-(5-Bromo-1H-benzoimidazol-2-yl)-3-trifluoromethyl-1H-pyrazole-4-carboxylic Acid], `Cc1nn(-c2nc3cc(Br)ccc3[nH]2)c(C)c1C(=O)O` [Example 21, 1-(5-Bromo-1H-benzoimidazol-2-yl)-3,5-dimethyl-1H-pyrazole-4-carboxylic Acid] is lower in “Cellular % EPO Stimulation” value: 20.52% for the first, 7.24% for the second.

same assay, conditions: Homo sapiens, Hep3B, 24 h, EPO secretion as percentage of control compound 7-[(4-Chloro-phenyl)-(5-methyl-isoxazol-3-ylamino)-methyl]-quinolin-8-ol, read-out: Cellular % EPO Stimulation

First: O=C(O)c1cnn(-c2nc3cc(C(F)(F)F)ccc3[nH]2)c1 [Example 3, 1-(5-Trifluoromethyl-1H-benzoimidazol-2-yl)-1H-pyrazole-4-carboxylic Acid]
Second: O=C(O)c1cnn(-c2nc3cc(C(F)(F)F)c(Cl)cc3[nH]2)c1 [Example 30, 1-(6-Chloro-5-trifluoromethyl-1H-benzoimidazol-2-yl)-1H-pyrazole-4-carboxylic Acid]
The EPO secretion, % of control compound of the first is lower: 110% for the first, 129% for the second.

Going from `O=C(O)c1cnn(-c2nc3cc(-c4cccc(OCc5ccc(Cl)cc5)c4)ccc3[nH]2)c1` [Example 14, 1-{5-[3-(4-Chloro-benzyloxy)-phenyl]-1H-benzoimidazol-2-yl}-1H-pyrazole-4-carboxylic Acid] to `CCCSc1cc2nc(-n3cc(C(=O)O)cn3)[nH]c2cc1F` [Example 152, 1-(6-Fluoro-5-propylsulfanyl-1H-benzoimidazol-2-yl)-1H-pyrazole-4-carboxylic Acid], the EPO secretion, % of control compound rises from 20.1% to 91.4%.

First: O=C(O)c1cnn(-c2nc3cc(OC(F)(F)F)cc(Br)c3[nH]2)c1 [Example 29, 1-(7-Bromo-5-trifluoromethoxy-1H-benzoimidazol-2-yl)-1H-pyrazole-4-carboxylic Acid]
Second: O=C(O)c1cnn(-c2nc3cc(C(F)(F)F)c(F)cc3[nH]2)c1 [Example 129, 1-(6-Fluoro-5-trifluoromethyl-1H-benzoimidazol-2-yl)-1H-pyrazole-4-carboxylic Acid]
The EPO secretion, % of control compound of the first is lower: 57.5% for the first, 70.8% for the second.
